What was measured:
MCF10A p53−/− KO cells = experiment: RNA-Seq detection of CiPAS (retained-intron polypeptides); type: cell-based, human; conditions: cells treated with 5-FU and caffeine, not detected with caffeine alone
Text: (§1) The following Table 1 provides predicted-CiPAS and includes polypeptide sequences encoded by introns detected with high confidence in RNA-Seq generated from MDA-MB-231 and MCF10A p53−/− KO cells treated with 5-FU and caffeine and not detected in cells treated with caffeine alone. 38 and 76 CiPAS were detected in MDA-MB-231 and MCF10A p53−/− KO cells, respectively, including 18 shared CiPAS. Certain representative and non-limiting chemo-neoepitopes encoded by the CiPaS sequences are shown in bold, with overlapping amino acids in italics.

MDA-MB-231 = experiment: as above; type: cell-based, human
Text: as §1

4T1 tumor cells = experiment: Tumor challenge with 5FU-treated or untreated 4T1 cells, tumor growth; type: in vivo, BALB/cJ mice; conditions: FIG. 3B top, 5FU-treated mice (i.p. 100 mg/kg day -7, 50 mg/kg day 0, 20 mg/kg every three days)
Method: (§2) FIG. 3. BALB/cJ mice were challenged (on the left flank) at day 0 with 150,000 5FU- treated or untreated 4T1 tumor cells. Seven days after the first tumor challenge, they were challenged (on the right flank) with 95,000 5FU- treated or untreated Meth A tumor cells and growth of both tumors was measured. […] Each line represents tumor growth in a single mouse. […] B. (Top panel) 4T1 (un-treated or in vitro-5FU treated) growth curves in 5FU-treated mice (5FU i.p. 100 mg/kg at day -7, 50 mg/kg at day 0 and 20 mg/kg every three days after the first tumor challenge). […] (Bottom panel) The same mice as the top panel were challenged with un-treated or 5FU-treated Meth A cells, one week after challenge with 4T1 cells.
(§3) As known in the art, 4T1 cells are a breast cancer cell line derived from the mammary gland tissue of mouse. Meth A cancer cells are methyl-cholantrene-induced mouse sarcoma cells. […] This Example analyzes whether treatment with 5-FU generates new antigenic entities (such as CiPAS), and if treatment of both cell types produces the same antigens in both cells. If this process occurs, the antigens should be processed and presented identically in both cells of the BALB/c haplotype.
(§4) First, we tested if treatment of cells in vitro with 5-FU, in and of itself, makes the cancer cells grow differently because of cell death, or another phenomenon.

MCF10A p53−/− = experiment: RT-PCR analysis of intron retention after 5-FU exposure; type: cell-based, human; conditions: 300 μM 5-FU for 24 h
Method: (§5) FIG. 2. […] P53 mutant MDA-MB-231 cells, p53wt MCF10A cells, and MCF10A cells with biallelic frameshift mutation in the p53 gene were treated or untreated with 300uM of 5-FU for 24 h. NMD was inhibited or not with 10 mM caffeine for 4 h before cytoplasmic RNA isolation. “*” symbols indicate RT-PCR amplicons with retained introns.
(§6) The following breast cell lines were used: MDA-MB-231 p53−/−, MCF10A p53+/+ cell line and the derivative of MCF10A p53−/−, all treated or untreated with 300 μM of 5-FU for 24 h. In addition, the NMD pathway was inhibited or not inhibited with caffeine for 4 h before cytoplasmic RNA isolation in order to detect the mRNA species that are degraded due to stop codons contained within retained introns.

MDA-MB-231 p53−/− = experiment: as above; type: cell-based, human; conditions: 300 μM 5-FU for 24 h
Method: as §5, §6

Meth A tumor cells = experiment: Tumor challenge with 5FU-treated or untreated Meth A cells, tumor growth; type: in vivo, BALB/cJ mice; conditions: for growth of 5-FU treated vs un-treated Meth A cells in vivo (AUC): FIG. 3A, in vitro 5-FU treatment alone, P=0.07; for growth of 5-FU-treated vs un-treated Meth A cells (AUC) in mice previously immunized with 5-FU-treated 4T1 cells: challenge one week after 4T1, P=0.003
Method: as §2, §3, §4

MCF10A p53+/+ cell line = experiment: RT-PCR of cell cycle progression gene mRNA after 5-FU exposure; type: cell-based, human; conditions: 300 μM 5-FU for 24 h
Method: as §5, §6

number of genes with overexpressed introns in 5-FU treated 4T1 samples (4T1 cells): 804 genes | number of introns overexpressed in 5-FU treated 4T1 samples (4T1 cells): 991 introns | intron retention in MCM10 and CCNE2 genes in response to 5-FU (MCF10A p53−/−; only in cells with mutant p53): intron retention | intron retention in MCM10 and CCNE2 genes in response to 5-FU (MDA-MB-231 p53−/−; only in cells with mutant p53): intron retention | MCM10 mRNA in response to 5-FU (MCF10A p53+/+ cell line; data not shown): repressed | transcription of the mRNA of the CCNE2 cell cycle progression gene in response to 5-FU (MCF10A p53+/+ cell line; only in MCF10A cells with p53+/+): repressed
Compound: O=c1[nH]cc(F)c(=O)[nH]1 [5-FU, 5-fluorouracil]
number of CiPAS detected (MCF10A p53−/− KO cells): 76 CiPAS | number of CiPAS detected (MDA-MB-231; cells treated with 5-FU and caffeine, not detected with caffeine alone): 38 CiPAS | number of shared CiPAS (MDA-MB-231; shared between MDA-MB-231 and MCF10A p53−/− KO cells, 5-FU and caffeine): 18 CiPAS | growth of 5-FU treated vs un-treated 4T1 cells in vivo (AUC) (4T1 tumor cells): grow essentially identically | growth of 5-FU treated vs un-treated 4T1 cells in vivo (AUC) (4T1 tumor cells; listed as 5FU): grow the same | extent of retention of 6th intron of the CCNE2 gene (MCF10A p53−/−): the whole intron is retained | extent of retention of 6th intron of the CCNE2 gene (MDA-MB-231 p53−/−): only part of the 6th intron of the CCNE2 gene is retained | growth of 5-FU treated vs un-treated Meth A cells in vivo (AUC) (Meth A tumor cells): grow identically | growth of 5-FU treated vs un-treated Meth A cells in vivo (AUC) (Meth A tumor cells; listed as 5FU): grow similarly | slower growth of 5-FU-treated Meth A cells in mice previously challenged with 5-FU-untreated 4T1 cells (Meth A tumor cells; FIG. 3B bottom): not seen | growth of 5-FU-treated vs un-treated Meth A cells (AUC) in mice previously immunized with 5-FU-treated 4T1 cells (Meth A tumor cells; FIG. 3B bottom): grow more slowly | growth of 5-FU-treated vs un-treated Meth A cells (AUC) in mice previously immunized with 5-FU-treated 4T1 cells (Meth A tumor cells; FIG. 3B bottom, listed as 5FU): significantly lower

Reference: patent publication US20210381060A1, “CANCER SPECIFIC IMMUNOTHERAPEUTIC TARGETS GENERATED BY CHEMOTHERAPEUTIC DRUG TREATMENT” (Health Research, Inc., priority 2018, published 2021)
